Test systems include BT-549; HT-29; SK-MEL-2; OVCAR-3; DU-145; MOLT-4; SK-OV-3; T47D; SK-MEL-28; SK-MEL-5; HOP-62; SF-268; HCT-116; CCRF-CEM; NCI-H226; HCT-15; NCI-H23; OVCAR-4; SNB-75; HOP-92.
Test in all cases: growth of human tumour cells (NCI), 48 h

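Each compound was tested at five concentrations against cells in 96-well plates for 48 hours. GI50 marks 50% less growth.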 Calls of active or inactive are those of the source. No stated cut-off is given here; in the data, active = GI50 up to about 1.1 µM and inactive = higher.

Take `CC(C)(C)C(=O)N(C(=S)OCc1ccccn1)c1ccccc1`: the GI50 is 42.1 µM (inactive) in the test on BT-549; 27.6 µM (inactive) with HT-29; 20.6 µM (inactive) in the test with SK-MEL-2; 30.9 µM (inactive) with OVCAR-3; 38.6 µM (inactive) in the test with DU-145; 18.8 µM (inactive) with MOLT-4. Also, the GI50 in the test with SK-OV-3 is > 100 µM (inactive); in the test on T47D, 20 µM (inactive); in the test on SK-MEL-28, > 100 µM (inactive); with SK-MEL-5, 20 µM (inactive); with HOP-62 it was 13.2 µM (inactive); in the test on SF-268, 36.1 µM (inactive). Also, the GI50 was 23.1 µM (inactive) in the test on HCT-116; 22.6 µM (inactive) in the test on CCRF-CEM; 67.8 µM (inactive) in the test with NCI-H226; 30.1 µM in the test with HCT-15; 35.3 µM (inactive) in the test with NCI-H23.
With `N#CCc1nc(-c2ccccc2)n[nH]1`, the GI50 with BT-549, with HT-29, in the test on SK-MEL-2, with OVCAR-3, with DU-145 and in the test with OVCAR-4 was > 100 µM (inactive) each time. Further, the GI50 in the test on MOLT-4, with SK-OV-3, in the test with T47D, in the test on SK-MEL-5, with HOP-62 and in the test with SF-268 was > 100 µM (inactive) throughout. Further, the GI50 in the test on HCT-116 is > 100 µM (inactive); in the test on CCRF-CEM it was > 100 µM (inactive); with HCT-15, > 100 µM; in the test with SNB-75 it was > 100 µM (inactive); in the test on NCI-H23 it was > 100 µM (inactive).
For the compound `O=c1/c(=C\c2ccccc2)sc2n1C(c1ccccc1)C1(O)CCCCC1N=2` (stereo not given), the GI50 in the test with BT-549 is > 100 µM (inactive); with HT-29, > 100 µM (inactive); in the test with SK-MEL-2, 62.1 µM (inactive); with OVCAR-3, > 100 µM (inactive); in the test with OVCAR-4, 50.6 µM (inactive); in the test with MOLT-4 it was 42.1 µM (inactive). Further, the GI50 with T47D was 51.5 µM (inactive); with SK-MEL-28 it was > 100 µM (inactive); with SK-MEL-5, > 100 µM (inactive); in the test on HOP-62, > 100 µM (inactive); with SF-268, > 100 µM (inactive); in the test with HCT-116, 51.3 µM (inactive). Moreover, the GI50 in the test on CCRF-CEM was 91 µM (inactive); with NCI-H226, > 100 µM (inactive); in the test on HCT-15, > 100 µM; with SNB-75 it was > 100 µM (inactive); in the test on NCI-H23 it was 56.9 µM (inactive).
`N/C(=N\c1ccccc1Cl)c1ccccc1N`: the GI50 in the test on BT-549 was > 100 µM (inactive); in the test with HT-29 it was > 100 µM (inactive); in the test with SK-MEL-2, > 100 µM (inactive); in the test on OVCAR-3, > 100 µM (inactive); with DU-145, > 100 µM (inactive); with HOP-92 it was 16 µM (inactive). Also, the GI50 in the test with OVCAR-4, in the test on MOLT-4, with SK-OV-3, in the test with SK-MEL-28, in the test with SK-MEL-5 and with HOP-62 was > 100 µM (inactive) throughout. The GI50 in the test on SF-268 was > 100 µM (inactive); with HCT-116, > 100 µM (inactive); with CCRF-CEM it was > 100 µM (inactive); in the test on NCI-H226, > 100 µM (inactive); with HCT-15 it was > 100 µM; with SNB-75 it was 95.5 µM (inactive). In addition, the GI50 in the test on NCI-H23 was > 100 µM (inactive).
